Results on 18 molecules are retold here after US3939268A, “2,4-Diamino substituted pyridol(3,2-d)pyrimidine as antithrombotic agents” (Boehringer Ingelheim GmbH, priority 1971, dated 1976).

The subject of series [1] is thrombocyte aggregation / platelet stickiness (human blood). Nature of the series: retention test according to Morris (reduction in platelet stickiness, glass beads). It counts as cell-based. The conditions noted are these: 5×10^-5 mol/liter, 10 minutes at 37°C, average of 4 - 6 determinations; for inhibition at 50 µM: Platelet, 10 min. As to the method: The inhibiting effect upon the platelet stickiness was determined by means of the so-called retention test according to Morris [see E. Deutsch et al, 1.Internationales Symposium uber Stoffwechsel and Membranpermeabilitat von Erythrocyten and Thrombocyten, Vienna, Austria (1969); Georg Thieme Verlag, Stuttgart, Germany]. […] To determine the inhibiting action of the test compound upon thrombocyte aggregation, 1 ml of human blood is pipetted into small test tubes, and the test compound is added to a final concentration of 5×10^^-5 mol/liter. The tubes are incubated for 10 minutes at 37°C. 1 gm of glass beads (glass beads for gas-chromatography) is added to half of the tubes. Finally the closed tubes are attached to a vertical wheel and rotated for 1 minute. By this means good contact is obtained between the glass beads and the blood. The tubes are then allowed to stand at room temperature for another hour, after which time a satisfactory sedimentation of erythrocytes has taken place. 0.01 ml of the supernatant plasma is removed, diluted to 1 : 8,000 with celloscope solution, and the platelet count is read in the celloscope. The percent reduction in the stickiness due to the presence of the substance (compared to tubes without glass beads) is measured and the average of 4 - 6 determinations is taken.

The nature of series [2]: acute toxicity (LD50). The conditions noted are these: mouse, in vivo, po, mice, observation time 14 days; for mortality at 336 h: p.o., printed with LD50 >250 mg/kg, read-out: animals died. On the procedure: 3. The acute toxicity of some of the compounds for orientation (observationtime : 14 days) was determined on mice, or the LD50 was calculated from the percentage of animals which died after different doses within the observation time [see J. Pharmacol. exper. Therap. 96, 99(1949)].

For series [3], the system named is bleeding time. Nature of the series: prolongation of the bleeding time (method of Duke). The conditions noted are these: non-anesthetized mice, 10 mgm/kg per os, after one hour, compared to untreated animals; for change in vivo at 10 mg/kg: Mus musculus, po, 1 h. It counts as in vivo. An excerpt:
The prolonging effect upon the bleeding time was ascertained by the method of Duke, J. Amer. Med. Assoc. 15, 1185 (1910). 2. To determine the bleeding time, 10 mgm/kg of the test compound is given per os to non-anesthetized mice. After one hour, about 0.5 mm is cut off from the tail of each animal. The exuded blood is soaked up with filter paper every 30 seconds. The number of drops of blood so obtained is used as a measure for the bleeding time compared to untreated animals (5 animals/test).

Series [4] deals with anesthetized cats and dogs. Nature of the series: hypotensive tests (method of Eckenhoff). It counts as in vivo. The conditions noted are these: in words, warm-blooded animals, such as mice. As to the method: The hypotensive tests were performed on anesthetized cats and dogs by the method of Eckenhoff, Amer. J. Physiol. 148, 582 (1947).

Usually inhibition stands for the drop in the measured response relative to a control, in per cent. A low value points to a response near the control. A word on the LD50: it is the dose at which mortality reaches 50%.

Structures can show the parent of a compound that is named as a salt.

In turn, `O=C(O)/C=C\C(=O)O.c1cnc2c(N3CCSCC3)nc(N3CCNCC3)nc2c1` [A, 2-piperazino-4-thiomorpholinopyrido[3,2-d]pyrimidine maleate] returned an inhibition at 50 µM in series [1] of 99%. This molecule also returned an LD50 at 336 h in series [2] of 413 mg/kg. This molecule also had a change in vivo at 10 mg/kg in series [3] of 171%.

Take `CN1CCN(c2nc(N3CCSCC3)c3ncccc3n2)CC1` [B, 2-(n'-methyl-piperazino)-4-thiomorpholino-pyrido[3,2-d] pyrimidine dihydrochloride]: in series [1], the inhibition at 50 µM turned out to be 53%. In series [3], the change in vivo at 10 mg/kg amounted to 118%.

In series [1], `Cl.Cl.[O-][S+]1CCN(c2nc(N3CCNCC3)nc3cccnc23)CC1` [C, 2-piperazino-4-(1'-oxido-thiomorpholino)-pyrido[3,2-d] pyrimidine dihydrochloride] returned an inhibition at 50 µM of 99%. In series [4], the hypotensive activity result is given as “particularly pronounced”. The molecule further yielded an LD50 at 336 h in series [2] of 872 mg/kg.

As to `CN1CCN(c2nc(N3CC[S+]([O-])CC3)c3ncccc3n2)CC1` [D, 2-(n'-methyl-piperazino)-4-(1'-oxido-thiomorpholino)-pyrido[3,2-d]pyrimidine dihydrochloride], in series [1], the inhibition at 50 µM turned out to be 87%. In series [3], the change in vivo at 10 mg/kg worked out at 88%.

`[O-][S+]1CCN(c2nc(N(CCCO)CCCO)nc3cccnc23)CC1` [E, 2-(dipropanol-amino)-4-(1'-oxido-thiomorpholino)-pyrido[3,2-d]pyrimidine hydrochloride] returned an inhibition at 50 µM in series [1] of 88%. Further, the change in vivo at 10 mg/kg in series [3] is 40%.

For the molecule `c1cnc2c(N3CCNCC3)nc(N3CCSCC3)nc2c1` [Example 27, 2-Thiomorpholino-4-piperazino-pyrido[3,2-d]pyrimidine], in series [4], the hypotensive activity entry is “particularly pronounced”.

On to `Cl.[O-][S+]1CCN(c2nc(N(CCO)CCCCCCO)nc3cccnc23)CC1` [F, 2-(n-ethanol-hexanolamino)-4-(1'-oxido-thiomorpholino)-pyrido[3,2-d]pyrimidine hydrochloride], for which the “Reduction in Stickiness” value in series [1] (50 µM) is 71%. For the same molecule, the “Prolongation of Bleeding Time” value in series [3] is given as 35%.

For the molecule `CC1CN(c2nc(N3CCNCC3)nc3cccnc23)CC[S+]1[O-]` (stereo not shown) [G, 2-piperazino-4-(1'-oxido-2'-methyl-thiomorpholino)-pyrido[3,2-d]pyrimidinedihydrochloride], the inhibition at 50 µM in series [1] was determined as 96%. The molecule also displayed a change in vivo at 10 mg/kg in series [3] of 55%.

In series [1], `c1cnc2c(N3CCOCC3)nc(N3CCNCC3)nc2c1` [H, 2-piperazino-4-morpholino-pyrido[3,2-d]pyrimidine dihydrochloride] had an inhibition at 50 µM of 96%. For the same molecule, the change in vivo at 10 mg/kg in series [3] amounted to 55%.

On to `CN1CCN(c2nc(N3CCOCC3)c3ncccc3n2)CC1` [I, 2-(n'-methyl-piperazino)-4-morpholino-pyrido[3,2-d] pyrimidine dihydrochloride], for which the inhibition at 50 µM in series [1] was 70%. The same molecule had a change in vivo at 10 mg/kg in series [3] of 40%.

In turn, `OCCCN(CCCO)c1nc(N2CCOCC2)c2ncccc2n1` [J, 2-(dipropanol-amino)-4-morpholino-pyrido[3,2-d]pyrimidine dihydrochloride] registered an inhibition at 50 µM in series [1] of 50%. For the same molecule, the change in vivo at 10 mg/kg in series [3] was found to be 45%.

In series [1], `c1cnc2c(N3CCCCC3)nc(N3CCNCC3)nc2c1` [K, 2-piperazino-4-piperidino-pyrido[3,2-d]pyrimidine dihydrochloride] showed an inhibition at 50 µM of 39%. This molecule also registered a change in vivo at 10 mg/kg in series [3] of 138%.

Regarding `OCCCN(CCCO)c1nc(N2CCCCC2)c2ncccc2n1` [L, 2-(dipropanol-amino)-4-piperidino-pyrido[3,2-d]pyrimidine hydrochloride], 50 µM produced 20% inhibition in series [1]. Besides, the change in vivo at 10 mg/kg in series [3] was 103%.

Molecule `O=S1(=O)CCN(c2nc(N3CCNCC3)nc3cccnc23)CC1` [M, 2-piperazino-4-(1',1'-dioxide-thiomorpholino)-pyrido[3,2-d]pyrimidine dihydrochloride] showed an inhibition at 50 µM in series [1] of 88%. In addition, in series [2], the LD50 at 336 h is above 250 mg/kg and the mortality at 336 h amounted to 0%. Moreover, the change in vivo at 10 mg/kg in series [3] stood at 98%.

In series [1], `Cl.Cl.c1cnc2c(N3CCCCC3)nc(N3CCSCC3)nc2c1` [N, 2-thiomorpholino-4-piperidino-pyrido[3,2-d]pyrimidine dihydrochloride] displayed an inhibition at 50 µM of 77%. In addition, in series [2], the LD50 at 336 h is above 250 mg/kg and the mortality at 336 h worked out at 0%. For the same molecule, the change in vivo at 10 mg/kg in series [3] is 98%.

For `[O-][S+]1CCN(c2nc(N3CCNCC3)c3ncccc3n2)CC1` [O, 2-(1'-oxido-thiomorpholino)-4-piperazino-pyrido [3,2-d]pyrimidine], the inhibition at 50 µM in series [1] was determined as 98%. In addition, in series [4], the hypotensive activity entry was “particularly pronounced”. In series [2], the LD50 at 336 h was above 250 mg/kg and the mortality at 336 h is 0%. This molecule gave a change in vivo at 10 mg/kg in series [3] of 35%.

In turn, `Cc1ccc2nc(N3CCNCC3)nc(N3CC[S+]([O-])CC3)c2n1` [P, 2-piperazino-4-(1'-oxido-thiomorpholino)-6-methylpyrido[3,2-d]pyrimidine d ihydrochloride] had an inhibition at 50 µM in series [1] of 89%. Moreover, the change in vivo at 10 mg/kg in series [3] stood at 98%.

`Cc1ccc2nc(N3CCSCC3)nc(N3CCNCC3)c2n1` [Q, 2-thiomorpholino-4-piperazino-6-methyl-pyrido[3,2-d] pyrimidine dihydrochloride] gave an inhibition at 50 µM in series [1] of 34%.
